Holding throughout (format): in vivo
The test system of experiment [1] is caterpillars of the army worm (Spodoptera frugiperda). The experiment can be described thus: Spodoptera frugiperda test (SPODFR spray treatment). As to conditions: 168 h, application rate 500 g/ha, after 7 d, read-out: activity (effect in %, caterpillars killed). The protocol: Spodoptera frugiperda Test (SPODFR Spray Treatment) [table] To produce a suitable preparation of active compound, 1 part by weight of active compound is mixed with the stated amounts of solvents and emulsifier, and the concentrate is diluted with emulsifier-containing water to the desired concentration. Discs of maize leaves (Zea mays) are sprayed with an active compound preparation of the desired concentration and, after drying, populated with caterpillars of the army worm (Spodoptera frugiperda). After the desired period of time, the effect in % is determined 100% means that all caterpillars have been killed; 0% means that none of the caterpillars have been killed.

The subject of experiment [2] is larvae of the mustard beetle (Phaedon cochleariae). The experiment can be described thus: Phaedon test (PHAECO spray treatment). As to conditions: 168 h, application rate 500 g/ha, after 7 d, read-out: activity (effect in %, beetle larvae killed). The procedure: Phaedon Test ([…] Spray Treatment) [table] To produce a suitable preparation of active compound, 1 part by weight of active compound is mixed with the stated amounts of solvents and emulsifier, and the concentrate is diluted with emulsifier-containing water to the desired concentration. Discs of chinese cabbage (Brassica pekinensis) are sprayed with an active compound preparation of the desired concentration and, after drying, populated with larvae of the mustard beetle (Phaedon cochleariae). After the desired period of time, the effect in % is determined 100% means that all beetle larvae have been killed; 0% means that none of the beetle larvae have been killed.

Another experiment relates to Lucilia cuprina larvae. The experiment can be described thus: Lucilia cuprina test (LUCICU). As to conditions: 48 h, application rate 100 ppm, after 2 d, treated horse meat, read-out: activity (kill in %, larvae). The procedure:
Lucilia cuprina Test (LUCICU) Solvent: dimethyl sulphoxide To produce a suitable preparation of active compound, 1 part by weight of active compound is mixed with the stated amount of water, and the concentrate is diluted with water to the desired concentration. Containers containing horse meat treated with the active compound preparation of the desired concentration are populated with Lucilia cuprina larvae. After the desired period of time, the kill in % is determined 100% means that all larvae have been killed; 0% means that none of the larvae have been killed.

For the compound `Nc1c(-c2ccc(Cl)c(Br)c2)c(C(F)(F)F)nn1-c1ncccn1` [Example 1-87, 4-(3-bromo-4-chlorophenyl)-2-pyrimidin-2-yl-5-(trifluoromethyl)-2H-pyrazol-3-ylamine], the pest or weed control at 500 g/ha in experiment [1] and in experiment [2] was no less than 80% throughout.
Consider `COc1ccc(-c2c(C(F)(F)F)nn(-c3ncccn3)c2N)cc1` [Example 5-22], for which the pest or weed control at 100 ppm in the experiment on Lucilia cuprina larvae is no less than 80%. For the same compound, the pest or weed control at 500 g/ha in experiment [2] was no less than 80%.
On to `N#Cc1cccc(-c2c(C(F)(F)F)nn(-c3ncccn3)c2N)c1` [Example 6-70], for which the pest or weed control at 500 g/ha in experiment [1] and in experiment [2] was no less than 80% each time.
With `Nc1c(-c2cccc([N+](=O)[O-])c2)c(C(F)(F)F)nn1-c1ncccn1` [Example 6-78], the pest or weed control at 500 g/ha in experiment [1] and in experiment [2] was no less than 80% each time.
Take `Nc1c(-c2ccc(F)c(Cl)c2)c(C(F)(F)F)nn1-c1ncccn1` [Example 1-79, 4-(3-chloro-4-fluorophenyl)-1-pyrimidin-2-y1-3-(trifluoromethyl)-1H-pyrazole-5-amine]: the pest or weed control at 500 g/ha in experiment [1] and in experiment [2] was no less than 80% throughout. Further, the pest or weed control at 100 ppm in the experiment on Lucilia cuprina larvae was no less than 80%.
Turning to `Nc1c(-c2ccc(SC(F)(F)F)cc2)c(C(F)(F)F)nn1-c1ncccn1` [Example 5-62], in the experiment on Lucilia cuprina larvae, the pest or weed control at 100 ppm is no less than 80%. Further, the pest or weed control at 500 g/ha in experiment [2] was no less than 80%.
`CC(=O)N(C(C)=O)c1c(-c2ccc(Cl)c(Cl)c2)c(C(F)(F)F)nn1-c1ncccn1` [Example 29-37, N,N-diacetyl-4-(3,4-dichlorophenyl)-1-pyrimidin-2-yl-3-(trifluoromethyl)-1H-pyrazole-5-amine]: the pest or weed control at 500 g/ha in experiment [1] and in experiment [2] was no less than 80% each time.
As to `Nc1c(-c2ccc(Cl)c(Cl)c2)c(C(F)(F)F)nn1-c1ncccn1` [Example 1-80, 4-(3,4-dichlorophenyl)-1-pyrimidin-2-yl-3-(trifluoromethyl)-1H-pyrazole-5-amine], the pest or weed control at 500 g/ha in experiment [1] and in experiment [2] was no less than 80% in each case. Besides, the pest or weed control at 100 ppm in the experiment on Lucilia cuprina larvae is no less than 80%.
As to `Nc1c(-c2cc(Cl)cc(C(F)(F)F)c2)c(C(F)(F)F)nn1-c1ncccn1` [Example 3-25, 4-(3-chloro-5-trifluoromethylphenyl)-2-pyrimidin-2-yl-5-trifluoromethyl-2H-pyrazol-3-ylamine], the pest or weed control at 500 g/ha in experiment [1] and in experiment [2] was no less than 80% in each case. In addition, the pest or weed control at 100 ppm in the experiment on Lucilia cuprina larvae was no less than 80%.
As to `Nc1c(-c2ccc(Cl)cc2)c(C(F)(F)F)nn1-c1ncccn1` [Example 1-6, 4-(4-chlorophenyl)-1-pyrimidin-2-yl-3-(trifluoromethyl)-1H-pyrazole-5-amine], the pest or weed control at 500 g/ha in experiment [1] and in experiment [2] was no less than 80% each time. In addition, the pest or weed control at 100 ppm with Lucilia cuprina larvae is no less than 80%.
Regarding `CCNc1c(-c2ccc(Cl)cc2)c(C(F)(F)F)nn1-c1ncccn1` [Example 12-7, 4-(4-chlorophenyl)-N-ethyl-l-pyrimidin-2-yl-3-(trifluoromethyl)-1H-pyrazole-5-amine], the pest or weed control at 500 g/ha in experiment [1] and in experiment [2] was no less than 80% each time. Further, the pest or weed control at 100 ppm in the experiment with Lucilia cuprina larvae was no less than 80%.
For `Nc1c(-c2ccc(Br)cc2)c(C(F)(F)F)nn1-c1ncccn1` [Example 1-9, 4-(4-bromophenyl)-1-pyrimidin-2-yl-3-(trifluoromethyl)-1H-pyrazole-5-amine], the pest or weed control at 500 g/ha in experiment [1] and in experiment [2] was no less than 80% in each case. In addition, in the experiment on Lucilia cuprina larvae, the pest or weed control at 100 ppm was no less than 80%.
For `FC(F)(F)c1nn(-c2ncccn2)c(Cl)c1-c1ccc(Cl)cc1` [Example 14-7], the pest or weed control at 500 g/ha in experiment [1] and in experiment [2] was no less than 80% each time. For the same compound, in the experiment on Lucilia cuprina larvae, the pest or weed control at 100 ppm was no less than 80%.

These data come from patent US20100144672A1, “PYRIMIDINYL PYRAZOLES AS INSECTICIDES AND PARASITICIDE ACTIVE AGENTS” (BAYER CROPSCIENCE AG, priority 2006, published 2010).
